# Experimental data taken from patent US8461328B2, “Tricyclic heterocyclic compounds, compositions and methods of use thereof” (Genentech, Inc., priority 2010, dated 2013).
# What was measured:
# Type in all cases: biochemical
# JAK3 = target: T1, JAK3 (Homo sapiens, UniProt P52333); experiment: JAK3 inhibition (Table 4); conditions: read-out: JAK3 Ki
# T1 construct: made in house; host or cells: SF9 insect cells (baculovirus)
# JAK1 = target: T2, JAK1 (Homo sapiens, UniProt P23458); experiment: JAK1 inhibition (Table 4); conditions: read-out: JAK1 Ki
# T2 construct: made in house; host or cells: SF9 insect cells (baculovirus)
# T2 sequence (P23458 852-1154): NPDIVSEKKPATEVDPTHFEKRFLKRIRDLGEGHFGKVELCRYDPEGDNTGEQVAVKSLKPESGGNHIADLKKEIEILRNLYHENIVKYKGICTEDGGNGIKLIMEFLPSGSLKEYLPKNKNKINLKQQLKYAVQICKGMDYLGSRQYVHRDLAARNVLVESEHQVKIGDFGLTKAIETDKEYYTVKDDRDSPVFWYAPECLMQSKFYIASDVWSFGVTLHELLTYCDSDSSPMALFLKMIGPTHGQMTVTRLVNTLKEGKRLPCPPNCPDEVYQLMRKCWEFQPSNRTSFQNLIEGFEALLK
# JAK2 = target: T3, JAK2 (Homo sapiens, UniProt O60674); experiment: JAK2 inhibition (Table 4); conditions: read-out: JAK2 Ki
# T3 construct: made in house; host or cells: SF9 insect cells (baculovirus)
# T3 sequence (O60674 812-1132): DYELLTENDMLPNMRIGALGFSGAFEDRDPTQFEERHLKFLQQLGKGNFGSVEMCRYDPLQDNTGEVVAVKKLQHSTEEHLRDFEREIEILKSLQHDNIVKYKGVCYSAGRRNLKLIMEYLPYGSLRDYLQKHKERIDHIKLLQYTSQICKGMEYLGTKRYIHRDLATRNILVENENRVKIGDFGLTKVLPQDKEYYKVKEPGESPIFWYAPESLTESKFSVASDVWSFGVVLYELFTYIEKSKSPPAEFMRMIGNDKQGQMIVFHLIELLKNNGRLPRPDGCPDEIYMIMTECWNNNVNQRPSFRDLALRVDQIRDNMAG
# TYK2 = target: T4, TYK2 (Homo sapiens, UniProt P29597); experiment: TYK2 inhibition (Table 4)
# T4 construct: made in house; host or cells: SF9 insect cells (baculovirus)
# T4 sequence (P29597 873-1187): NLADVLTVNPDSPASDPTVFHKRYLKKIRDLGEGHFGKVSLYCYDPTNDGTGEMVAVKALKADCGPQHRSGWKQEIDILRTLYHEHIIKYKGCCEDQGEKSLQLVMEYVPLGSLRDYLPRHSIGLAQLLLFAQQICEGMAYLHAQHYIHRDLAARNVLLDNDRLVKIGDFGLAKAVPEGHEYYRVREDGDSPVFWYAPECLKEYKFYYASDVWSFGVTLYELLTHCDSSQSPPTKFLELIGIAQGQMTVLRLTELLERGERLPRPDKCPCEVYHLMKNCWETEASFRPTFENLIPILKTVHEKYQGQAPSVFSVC
# T1 sequence (P52333 783-1124): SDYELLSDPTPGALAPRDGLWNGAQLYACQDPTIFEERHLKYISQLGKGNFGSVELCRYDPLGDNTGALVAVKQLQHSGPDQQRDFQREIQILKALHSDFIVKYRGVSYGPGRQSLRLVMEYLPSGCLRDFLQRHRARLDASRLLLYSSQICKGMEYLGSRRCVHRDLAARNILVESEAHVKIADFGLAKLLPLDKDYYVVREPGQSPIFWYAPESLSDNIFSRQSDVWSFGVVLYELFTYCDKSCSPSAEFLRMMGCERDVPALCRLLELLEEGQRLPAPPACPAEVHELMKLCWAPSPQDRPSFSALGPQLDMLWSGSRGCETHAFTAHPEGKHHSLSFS
Ki (JAK3),Ki (JAK1),Ki (JAK2),Ki (TYK2),Structure (SMILES)
1.84 µM,0.0871 µM,1.27 µM,1.99 µM,"CCCS(=O)(=O)N1CCC(n2c(Cc3conc3C)nc3cnc4[nH]ccc4c32)CC1 [Example 381, 2-(3-Methyl-isoxazol-4-ylmethyl)-1-[1-(propane-1-sulfonyl)-piperidin-4-yl]-1,6-dihydro-1,3,5,6-tetraaza-as-indacene]"
0.0526 µM,0.0103 µM,0.0575 µM,0.294 µM,"N#CCCN1CCC(n2c(CCC3CCCO3)nc3cnc4[nH]ccc4c32)CC1 (racemic) [Example 517, 3-(4-{2-[2-(Tetrahydro-furan-2-yl)-ethyl]-6H-1,3,5,6-tetraaza-as-indacen-1-yl}-piperidin-1-yl)-propionitrile]"
0.253 µM,0.0178 µM,0.0373 µM,0.108 µM,"N#CCCn1ncc2c1CC[C@@H](n1cnc3cnc4[nH]ccc4c31)C2 [Example 992, 3-[(R)-5-(6H-1,3,5,6-Tetraaza-as-indacen-1-yl)-4,5,6,7-tetrahydro-indazol-1-yl]-propionitrile]"
0.172 µM,0.00273 µM,0.0232 µM,0.0208 µM,"COC(=O)N[C@H]1CC[C@H](n2c(CO)nc3cnc4[nH]ccc4c32)CC1 [Example 600, Trans[4-(2-hydroxymethyl-6H-1,2,3,5,6-tetraaza-as-indacen-1-yl)-cyclohexyl]-carbamic acid methyl ester]"
0.133 µM,0.00421 µM,0.0326 µM,0.29 µM,"CCN1CC[C@@H](n2c(CCNS(=O)(=O)CC)nc3cnc4[nH]ccc4c32)[C@@H](F)C1 [Example 681, Ethanesulfonic acid {2-[1-((3S,4R)-1-ethyl-3-fluoro-piperidin-4-yl)-1,6-dihydro-1,2,3,5,6-tetraaza-as-indacen-2-yl]-ethyl}-amide]"
0.017 µM,0.00291 µM,0.00802 µM,0.0253 µM,"Cc1nc2cnc3[nH]ccc3c2n1C1CCC(C)(O)CC1 (stereo not drawn) [Example 994, Trans-1-Methyl-4-(2-methyl-6H-1,3,5,6-tetraaza-as-indacen-1-yl)-cyclohexanol]"
0.106 µM,0.0605 µM,0.134 µM,0.361 µM,"CS(=O)(=O)NCc1nc2cnc3[nH]ccc3c2n1C1CC2CCC1O2 (single isomer, unassigned) [Example 850, endo-N-[1-(7-Oxa-bicyclo[2.2.1]hept-2-yl)-1,6-dihydro-1,3,5,6-tetraaza-as-indacen-2-ylmethyl]-methanesulfonamide]"
0.0756 µM,0.00966 µM,0.0246 µM,0.0618 µM,"c1cc2c(ncc3ncn(C4CCCOC4)c32)[nH]1 (single isomer, unassigned) [Example 466, 1-(Tetrahydro-pyran-3-yl)-1,6-dihydro-1,3,5,6-tetraaza-as-indacene]"
0.0481 µM,0.0138 µM,0.0291 µM,0.555 µM,"O=C(Cc1ccccc1)N1CCC[C@@H](n2cnc3cnc4[nH]ccc4c32)C1 [Example 222, 2-Phenyl-1-[(R)-3-(6H-1,3,5,6-tetraaza-as-indacen-1-yl)-piperidin-1-yl]-ethanone]"
0.236 µM,0.081 µM,0.171 µM,0.905 µM,"CC(C)OCc1nc2cnc3[nH]ccc3c2n1C1CCN(CCC#N)CC1 [Example 842, 3-[4-(2-Isopropoxymethyl-6H-1,3,5,6-tetraaza-as-indacen-1-yl)-piperidin-1-yl]-propionitrile]"
1.16 µM,0.09 µM,0.538 µM,1.37 µM,"C[C@H](O)c1nc2cnc3[nH]ccc3c2n1C1CCCOC1 (single isomer, unassigned) [Example 462]"
0.0115 µM,0.00757 µM,0.0216 µM,0.0378 µM,"Cc1nc2cnc3[nH]ccc3c2n1[C@@H]1C[C@@H]2CC[C@H]1O2 (relative stereo) [Example 684, Endo-2-Methyl-1-(7-oxa-bicyclo[2.2.1]hept-2-yl)-1,6-dihydro-1,2,3,5,6-tetraaza-as-indacene]"
0.0257 µM,0.00638 µM,0.0102 µM,0.0414 µM,"c1cc2c(ncc3ncn(C4CCc5[nH]ncc5C4)c32)[nH]1 (stereo not shown) [Example 198, 1-(4,5,6,7-Tetrahydro-1H-indazol-5-yl)-1,6-dihydro-1,2,3,5,6-tetraaza-as-indacene]"
0.0631 µM,0.0284 µM,0.0777 µM,0.483 µM,"N#CCCN1CCC(n2c(CNCC(F)(F)F)nc3cnc4[nH]ccc4c32)CC1 [Example 695, 3-(4-{2-[(2,2,2-Trifluoro-ethylamino)-methyl]-6H-1,2,3,5,6-tetraaza-as-indacen-1-yl}-piperidin-1-yl)-propionitrile]"
0.111 µM,0.00097 µM,0.0221 µM,0.00476 µM,"C[C@@H](O)c1nc2cnc3[nH]ccc3c2n1C1CCC(NCC(F)F)CC1 (stereo partly drawn) [Example 1002, (R)-1-{1-[4-(2,2-Difluoro-ethylamino)-cyclohexyl]-1,6-dihydro-1,3,5,6-tetraaza-as-indacen-2-yl}-ethanol]"
0.0369 µM,0.0376 µM,0.0381 µM,0.133 µM,"Cc1nc2cnc3[nH]ccc3c2n1[C@@H]1CCC[C@](C)(O)C1 [Example 890, (1S,3R)-1-Methyl-3-(2-methyl-6H-1,3,5,6-tetraaza-as-indacen-1-yl)-cyclohexanol]"
0.0634 µM,0.00409 µM,0.0108 µM,0.0175 µM,"Cc1nc2cnc3[nH]ccc3c2n1C1CCC2CC(=O)NC2C1 (single isomer, unassigned) [Example 112, 6-(2-Methyl-6H-1,2,3,5,6-tetraaza-as-indacen-1-yl)-octahydro-indol-2-one]"
0.498 µM,0.0205 µM,0.186 µM,0.26 µM,"CC(C)(C)OC(=O)N1CCC[C@@H](CN[C@H]2CC[C@H](n3cnc4cnc5[nH]ccc5c43)CC2)C1 [Example 566, trans (S)-3-{[4-(6H-1,3,5,6-Tetraaza-as-indacen-1-yl)-cyclohexylamino]-methyl}-piperidine-1-carboxylic acid tert-butyl ester]"
0.0478 µM,0.00616 µM,0.0238 µM,0.033 µM,"Cc1nc2cnc3[nH]ccc3c2n1[C@@H]1CCCC(=O)C1 [Example 885, (R)-3-(2-Methyl-6H-1,3,5,6-tetraaza-as-indacen-1-yl)-cyclohexanone]"
0.0219 µM,0.0324 µM,0.11 µM,2.25 µM,"CC(C)(C)OC(=O)NC1CCCC(n2cnc3cnc4[nH]ccc4c32)C1 (single isomer, unassigned) [Example 475, [3-(6H-1,3,5,6-Tetraaza-as-indacen-1-yl)-cyclohexyl]-carbamic acid tert-butyl ester]"
0.171 µM,0.0369 µM,0.179 µM,0.207 µM,"c1cc2c(ncc3ncn([C@H]4CCCNC4)c32)[nH]1 [Example 364, (S)-1-Piperidin-3-yl-1,6-dihydro-1,3,5,6-tetraaza-as-indacene]"

Structure (SMILES),Ki (JAK3),Ki (JAK1),Ki (JAK2),Ki (TYK2)
"c1cc2c(ncc3ncn([C@@H]4C[C@H]5CC[C@@H](C4)N5)c32)[nH]1 [Example 93, (1S,3S,5R)-1-(8-aza-bicyclo[3.2.1]oct-3-yl)-1,6-dihydro-1,3,5,6-tetraaza-as-indacene]",1 µM,0.0296 µM,0.102 µM,0.323 µM
